Converted amounts (≈) assume the structure as drawn.
Columns and labels:
[1] = Solubility test (equilibrium solubility in deionized water, HPLC); type: physicochemical; settings: thermodynamic from solid, 37° C.
Procedure: Series solutions of 1 nM/10 nM/100 nM/100 nM/1 uM/10 uM/100 uM/1 mM were prepared according to following steps: WG compounds to be tested in the present application and corresponding compounds of structure A were respectively weighed, dissolved in deionized water, and oscillated at 37° C. for 12 hours to reach dissolution equilibrium. The resulted solutions were filtered 3 times with a filter membrane, and filtrates were collected. Actual concentrations of the compounds in the solutions were determined with HPLC. A curve of actual concentration of the solution—planned concentration of the solution was drawn, and the turning point of the curve indicated the equilibrium concentration of the compounds.

[2] = system: Liver cancer cells (HUH-7); experiment: Transmembrane test; type: in vitro ADME; settings: HUH-7, 24 hours, arithmetic mean over concentrations
Procedure: (§1) Liver cancer cells (HUH-7) were seeded in a 6-well plate at a concentration of 4*10^5 cells/mL, 2 mL per well, and cultured overnight until the cells were adherent to the wall.
(§2) The next day, compound solutions were prepared as follows: WG compounds of present application and corresponding compounds of structure A were respectively weighed, prepared with pure DMSO into mother solutions of high concentration, then gradiently diluted to obtain compound solutions of 10 uM/30 uM/100 uM/150 uM/300 uM in 10% DMSO, and shaken to mix well.
When the cells were adherent to the wall under microscope observation, 200 uL of compound solutions were added to each well with a ratio of compound solution to culture medium at 1:10.
After culture for 24 hours, the culture medium was sucked out with a pipette, and the wells were then washed five times with phosphate buffer, 2 mL each time for 30 seconds, to ensure there were no compound residues in the environment of the cells. Solutions in the wells were thoroughly sucked up, and 150 uL RIPA Lysis Buffer was added into each well. Then the culture was continued on ice for 30 min to lyse the cells. Lysates were collected and centrifuged at […] for 1 h, and supernatants were collected and characterized with HPLC to determine the concentration of the compounds therein.
The solubility and changes of transmembrane efficiency of WG compounds relative to corresponding compounds of structure A were analyzed and calculated. An arithmetic mean value of transmembrane efficiency changes under different concentrations was calculated, thereby obtaining a reference value of the difference of transmembrane efficiency between two groups of compounds.

[3] = system: Liver cancer cells (HUH-7); experiment: Cell growth inhibition test (cck-8); type: cell-based; settings: HUH-7, 72 hours
Procedure: Liver cancer cells (HUH-7) were seeded in a 96-well plate at a concentration of 2*10^4 cells/mL, 100 uL per well, and cultured overnight.
as §2, with “day, the cells were observed microscope to ensure adherence. Compound” for “day, compound”, “10 nM/100 nM/300 nM/1000 nM/3000 nM” for “10 uM/30 uM/100 uM/150 uM/300 uM”
Positive drug solutions in the control group were prepared with the same solvent and method, and only a single dosage was required. In this test, the positive drug solution is 1 uM lenvatinib.
After solution preparation was completed, 10 uL of compound solutions were added into each well of the 96-well plate, three duplicates for each dosage. The plate was gently shaken to allow the cells to repeatedly contact with the compound solutions, and then the plate was placed in an incubator to culture for 72 hours. 72 hours later, the plate was taken out and 10 uL cck-8 reagent was added into each well and shaken gently to mix well. Then the plate was placed in an incubator to culture for two hours. Two hours later, the plate was taken out and analyzed with a microplate reader to measure the absorbance of each well at a wavelength of 450 nm.
A graph can be drawn according to the gradient of concentrations, and the results can be compared directly.

[4] = system: target protein in liver cancer cells (HUH-7); experiment: Proteolysis test (Western blot of target protein); type: cell-based; design: key to Protein content (blackness of experimental group / blank control group): blot blackness of treated / blank control (fraction of control); settings: HUH-7, 24 hours
Procedure: as §1
as §2, with “nM/30 nM/100 nM/300 nM/1000 nM/3000 nM” for “uM/30 uM/100 uM/150 uM/300 uM”, “well. 200 uL of compound solutions were added to each well with a ratio of compound solution to culture medium at 1:10.” for “well.”
After culture for 24 hours, the culture medium was sucked out with a pipette, and then the wells were washed 3 times with PBS. Solutions in the wells were thoroughly sucked up, and 150 uL RIPA Lysis Buffer was added into each well. Then the culture was continued on ice for 30 min to lyse the cells.
Lysates were collected and centrifuged at 16000 rpm for 10 minutes. Supernatants were collected and the total protein content was normalized with a BCA kit to determine target protein contents with Western blot.
The results were analyzed with ImageJ. Blackness of each strip was measured and the protein was quantified for comparison analysis according to formula: Protein content=blackness value of the experimental group/blackness value of the blank control group.

Row | IC50 ([3]; Homo sapiens) | Compound | solubility thermodynamic at 12 h [1] | Transmembrane efficiency relative to corresponding compound of structure A (WGint4) [2] | IC50 [3] | DC50 [4] | solubility thermodynamic ([1]; 12 hours) | Protein content (blackness of experimental group / blank control group) ([4]; dosage 1 nM) | Protein content (blackness of experimental group / blank control group) ([4]; dosage 10 nM) | Protein content (blackness of experimental group / blank control group) ([4]; dosage 30 nM) | Protein content (blackness of experimental group / blank control group) ([4]; dosage 100 nM) | Protein content (blackness of experimental group / blank control group) ([4]; dosage 300 nM)
1 | – | COc1cc2c(Oc3ccc(NC(=O)C4(C(=O)Nc5ccc(F)cc5)CC4)cc3)ccnc2cc1OCCCOCCCOCCC(=O)N[C@H](C(=O)N1C[C@H](OP(=O)(O)OCCCCCCCCCC(=O)NC(COCCC(=O)NCCCNC(=O)CCCCOC2OC(CO)C(O)C(O)C2NC(C)=O)(COCCC(=O)NCCCNC(=O)CCCCOC2OC(CO)C(O)C(O)C2NC(C)=O)COCCC(=O)NCCCNC(=O)CCCCOC2OC(CO)C(O)C(O)C2NC(C)=O)C[C@H]1C(=O)NCc1ccc(-c2scnc2C)cc1)C(C)(C)C (some centres unmarked) [WG-4(00500639)] | 476 µM (≈ 1300 µg/mL) | WG-4 is about 17.1 times | – | – | – | – | – | – | – | –
2 | – | COc1cc2c(Oc3ccc(NC(=O)C4(C(=O)Nc5ccc(F)cc5)CC4)cc3F)ccnc2cc1OCCCOCCCOCCC(=O)N[C@H](C(=O)N1C[C@H](OP(=O)(O)OCCCCCCCCCC(=O)NC(COCCC(=O)NCCCNC(=O)CCCCOC2OC(CO)C(O)C(O)C2NC(C)=O)(COCCC(=O)NCCCNC(=O)CCCCOC2OC(CO)C(O)C(O)C2NC(C)=O)COCCC(=O)NCCCNC(=O)CCCCOC2OC(CO)C(O)C(O)C2NC(C)=O)C[C@H]1C(=O)NCc1ccc(-c2scnc2C)cc1)C(C)(C)C (some centres unmarked) [WG-5(00600639)] | 731 µM (≈ 2010 µg/mL) | WG-5 is about 11.5 times | – | – | – | – | – | – | – | –
3 | – | COc1cc2nccc(Oc3ccc(NC(=O)NC4CC4)c(Cl)c3)c2cc1C(=O)NCCCCCCC(=O)N[C@H](C(=O)N1C[C@H](OP(=O)(O)OCCCCCCCCCC(=O)NC(CNC(=O)CCCCCCOC2OC(CO)C(O)C(O)C2NC(C)=O)CNC(=O)CCCCCCOC2OC(CO)C(O)C(O)C2NC(C)=O)C[C@H]1C(=O)NCc1ccc(-c2scnc2C)cc1)C(C)(C)C (some centres unmarked) [WG-2(00300629)] | 603 µM (≈ 1180 µg/mL) | WG-2 is about 8.3 times | 29.5 nM | 21.4 nM | – | – | – | – | – | –
4 | – | CC(=O)N[C@H]1[C@H](OCCCCC(=O)NCCCNC(=O)CCOCC(COCCC(=O)NCCCNC(=O)CCCCO[C@@H]2O[C@H](CO)[C@H](O)[C@H](O)[C@H]2NC(C)=O)(COCCC(=O)NCCCNC(=O)CCCCO[C@@H]2O[C@H](CO)[C@H](O)[C@H](O)[C@H]2NC(C)=O)NC(=O)CCCCCCCCCOP(=O)(O)O[C@@H]2C[C@@H](C(=O)NCc3ccc(-c4scnc4C)cc3)N(C(=O)[C@@H](NC(=O)COCCOCCN(C)C(=O)c3cc(Oc4ccc(NC(=O)Nc5ccc(Cl)c(C(F)(F)F)c5)cc4)ccn3)C(C)(C)C)C2)O[C@H](CO)[C@H](O)[C@@H]1O [WG-3(00400639)] | – | WG-3 is about 15 times | 79.9 nM | 81.4 nM | 255 µM (≈ 681 µg/mL) | – | – | – | – | –
5 | – | COc1cc2nccc(Oc3ccc(NC(=O)NC4CC4)c(Cl)c3)c2cc1C(=O)NCCCCCCC(=O)N[C@H](C(=O)N1C[C@H](OP(=O)(O)OCCCCCCCCCC(=O)NC(COCCC(=O)NCCCNC(=O)CCCCOC2OC(CO)C(O)C(O)C2NC(C)=O)(COCCC(=O)NCCCNC(=O)CCCCOC2OC(CO)C(O)C(O)C2NC(C)=O)COCCC(=O)NCCCNC(=O)CCCCOC2OC(CO)C(O)C(O)C2NC(C)=O)C[C@H]1C(=O)NCc1ccc(-c2scnc2C)cc1)C(C)(C)C (some centres unmarked) [WG-1 (00300639)] | 677 µM (≈ 1770 µg/mL) | about 9.2 times | 21.3 nM | 18 nM | – | 0.93 | 0.72 | 0.31 | 0.16 | 0.13
6 | 211 nM | COc1cc2nccc(Oc3ccc(NC(=O)NC4CC4)c(Cl)c3)c2cc1C(=O)NCCCCCCC(=O)N[C@H](C(=O)N1C[C@H](O)C[C@H]1C(=O)NCc1ccc(-c2scnc2C)cc1)C(C)(C)C [WGint4 (003006)] | 31 µM (≈ 30 µg/mL) | – | – | 150 nM | – | 0.97 | 0.97 | 0.84 | 0.65 | 0.22
